According to patent US10918648B2, “Estrogen receptor modulator combinations” (The Regents of the University of California, priority 2016, dated 2021):
Where two headings read alike, the source gives them in different places.

Legend:
H1975 NSCLC cells = assay: NSCLC cell proliferation in vitro (MTS assay); type: cell-based, human; conditions: 72 hours
Description: (§1) Cell culture: Human breast and non-small cell lung cancer cells (MCF7, ZR75-1, MDAMB231, A549, H23, H1975, […]) were from ATCC. MCF7-HER2 were a kind gift of Dr. Dennis Slamon (23). Cell lines were routinely maintained in RPMI 1640 or DMEM medium with 10% fetal bovine serum (FBS) (Sigma-Aldrich) and 1% Antibiotic-Antimycotic solution 100× (Mediatech, Herndon, Va.). When indicated, for estrogen-free conditions, media was changed 48 h before experiments to phenol-red free RPMI 1640/DMEM with 1% dextran-coated, charcoal-treated (DCC)-FBS (24,25). Otherwise experiments were performed in phenol-red free RPMI 1640/DMEM medium with 5% DCC-FBS.
(§2) Cell proliferation assays: breast and lung tumor cells (between […]) were plated in 96 well plates using their respective medium with 10% FBS. For experiments using estradiol-17β, cells were rinsed with PBS and incubated with phenol redfree medium with 1% DCC-FBS for 48 hours as described before (24,25). Cells were then treated with different concentrations of SERDs ranging between 0.0001-100 μM. […] Cell counts and viability tests (Trypan blue) were done every 24 hr for 3 days. After 72 hr, proliferation was assessed with the MTS Assay CELLTITER 96® Aqueous Cell Proliferation Assay (Promega) or the Cell Proliferation ELISA, BrdU colorimetric assay (Roche). For the MTS, the absorbance of the formazan product was measured at 490 nanometer using the iMARK microplate reader from BIORAD. The BrdU ELISA assay is based on detection of BrdU incorporated into the genomic DNA of proliferating cells and an anti-BrdU antibody, the reaction product was quantified by measuring the absorbance at 370 nanometers using iMARK microplate reader from BIORAD. Cell numbers were also assessed initially by cell counts to confirm MTS/BrdU data. Experiments were done at least three times to confirm data.

H2122 NSCLC cells = assay: NSCLC cell proliferation in vitro (MTS assay); type: cell-based, human; conditions: 72 hours
Description: as §1, §2

A549 NSCLC cells = assay: NSCLC cell proliferation in vitro (MTS assay); type: cell-based, human; conditions: 72 hours, MTS assay
Rb serine-780 = Rb serine-780 phosphorylation, Western blot in A549 cells; type: cell-based, human; conditions: 24 h, 1% DCC-FBS, 1 nM E2, 1 nM androstenedione, 10 nM testosterone, 10 μM letrozole, 100 nM palbociclib, FIG. 4C
Description: FIG. 4C. […] Cells were treated 24 h in phenol red-free RPMI with 1% DCC-FBS with vehicle control (CON), 1 nM estradiol-17β (E2), 1 nM androstenedione (And), 10 nM testosterone (Tes), 10 μM letrozole (AI), 100 nM palbociclib (Plbo) or both Plbo+AI. After 24 hr, cell lysates subjected to Western blot with antibody to phosphoserine-780 Rb or total Rb (Cell Signaling) (20). GAPDH is used as loading control.
To investigate the antitumor efficacy of CDK 4/6 inhibitor palbociclib in NSCLC cells, we assessed the effects of palbociclib alone and in combination with the hormonal therapeutic letrozole (see FIGS. 4B and 5B). The potential mechanism of action of palbociclib and letrozole in NSCLC cells was investigated by assay of the effects of these agents alone and combined on phosphorylation of Rb serine-780

[1] = test system: MCF-7 breast cancer cells; assay: MCF-7 breast cancer cell proliferation (BrdU ELISA) in presence of estradiol-17β; type: cell-based, human; conditions: Homo sapiens, MCF7; 72 hrs in the presence of 1 nM estradiol-17β, BrdU ELISA; read-out: IC50 for inhibition of cell proliferation, MCF-7
Description: In experiments to assess potential proliferative effects of novel estrogen receptor ligands, human breast cancer cells were grown in phenol red-free, estrogen-free media with 1% dextran-coated charcoal-treated (DCC)-fetal bovine serum (FBS) for 48 hrs (15,44), then treated with either 1 μM or 50 μM doses of estrogen receptor antagonists in the presence of 1 nM estradiol-17β. Cell counts and viability tests (Trypan blue) were done every 24 hr for 3 days. After 72 hr, proliferation was assessed using the BrdU Cell proliferation ELISA (Roche). Cell numbers were also assessed initially by cell counts to confirm ELISA data. Each antiestrogen was tested at least in three different experiments.
In order to assess the antitumor action of novel estrogen receptor antagonists, we cultured human MCF-7 breast cancer cells with known expression of ERα. Cells were grown in 1% DCC-FBS for 48 hr and then treated with vehicle control or either 1 μM or 50 μM concentrations of antiestrogens JD 101-160 or the pure antiestrogen fulvestrant (FAS), all in the presence of 1 nM estradiol-170. […] Shown in FIG. 2A are results from MCF-7 cells grown in 1% DCC-FBS for 48 hr and then treated with vehicle control, 1 nM estradiol-170 and either 1 μM or 50 μM concentrations of antiestrogens JD 101-160 or the known pure antiestrogen fulvestrant (FAS) in the presence of 1 nM estradiol-170. Cell proliferation is expressed as percentage of that determined in the 1 nM estradiol-170-treated control group.
as §2

MCF-7 parental cells = conditions: MCF-7 parental xenografts in nude mice; cited from earlier work
ER+ early breast cancer = conditions: cited from earlier work
MCF-7/HER-2 cells = conditions: MCF-7 cells with HER2-overexpression, xenografts in nude mice; cited from earlier work
[2] = Homo sapiens, NCI-H1975, CDK 4/6 inhibitor without SERD, 5% DCC-FBS, read-out: IC50 for inhibition of NSCLC cell proliferation, H1975
[3] = Homo sapiens, NCI-H2122, CDK 4/6 inhibitor without SERD, 5% DCC-FBS, read-out: IC50 for inhibition of NSCLC cell proliferation, H2122
[4] = Homo sapiens, A549, CDK 4/6 inhibitor without SERD, 5% DCC-FBS, read-out: IC50 for inhibition of NSCLC cell proliferation, A549
[5] = Homo sapiens, NCI-H1975, SERD alone, estrogen-depleted phenol red-free medium with 5% DCC-FBS, read-out: IC50 for inhibition of NSCLC cell proliferation, H1975
[6] = Homo sapiens, NCI-H2122, SERD alone, estrogen-depleted phenol red-free medium with 5% DCC-FBS, read-out: IC50 for inhibition of NSCLC cell proliferation, H2122
[7] = Homo sapiens, A549, SERD alone, estrogen-depleted phenol red-free medium with 5% DCC-FBS, read-out: IC50 for inhibition of NSCLC cell proliferation, A549

`CCN1CCN(Cc2ccc(Nc3ncc(F)c(-c4cc(F)c5nc(C)n(C(C)C)c5c4)n3)nc2)CC1` [Abemaciclib, abemaciclib, reference compound] showed an IC50 (H1975 NSCLC cells; [2]) of 830 nM, an IC50 (H2122 NSCLC cells; [3]) of 330 nM and an IC50 (A549 NSCLC cells; [4]) of 990 nM.

In the case of `C[C@]12CC[C@H]3[C@@H](CCC4=CC(=O)CC[C@@]43C)[C@@H]1CC[C@@H]2O` [testosterone], the “phosphorylation of Rb serine-780” value (Rb serine-780) is reported as “stimulate Rb phosphorylation”.

`C[C@]12C[C@H](Oc3ccc(NC(=O)CCCN4CCCCC4)c(C(F)(F)F)c3)[C@@H]3c4ccc(O)cc4CC[C@H]3[C@@H]1CC[C@@H]2O` [JD160, N-(4-(((8S,9S,11S,13S,14S,17S)-3,17-Dihydroxy-13-methyl-7,8,9,11,12,13,14,15,16,17-deca-hydro-6H-cyclopenta[a]phenanthren-11-yl)oxy)-2-(trifluoromethyl)phenyl)-4-(piperidin-1-yl)butanamide] showed an IC50 [1] of 320 nM, an IC50 (H1975 NSCLC cells; [5]) of 2020 nM and an IC50 (H2122 NSCLC cells; [6]) of 2720 nM. The IC50 (A549 NSCLC cells; [7]) was 1410 nM.

Molecule `CC(=O)c1c(C)c2cnc(Nc3ccc(N4CCNCC4)cn3)nc2n(C2CCCC2)c1=O` [Palbociclib, palbociclib, reference compound] has an IC50 (H1975 NSCLC cells; [2]) of 1180 nM, an IC50 (H2122 NSCLC cells; [3]) of 870 nM and an IC50 (A549 NSCLC cells; [4]) of 3040 nM.

Work on `C[C@]12C[C@H](Oc3ccc(NC(=O)CN4CCOCC4)cc3)[C@@H]3c4ccc(O)cc4CC[C@H]3[C@@H]1CC[C@@H]2O` [JD103, N-(4-(((8S,9S,11S,13S,14S,17S)-3,17-Dihydroxy-13-methyl-7,8,9,11,12,13,14,15,16,17-deca-hydro-6H-cyclopenta[a]phenanthren-11-yl)oxy)phenyl)-2-morpholinoacetamide] yielded an IC50 [1] of 740 nM, an IC50 (H1975 NSCLC cells; [5]) of 2100 nM and an IC50 (H1975 NSCLC cells; in the presence of 1 μM abemaciclib, 5% DCC-FBS, read-out: IC50 of SERD for inhibition of NSCLC cell proliferation, H1975) of 2670 nM. It also gave an IC50 (H1975 NSCLC cells; in the presence of 1 μM palbociclib, 5% DCC-FBS, read-out: IC50 of SERD for inhibition of NSCLC cell proliferation, H1975) of 4550 nM, an IC50 (H2122 NSCLC cells; [6]) of 1330 nM and an IC50 (H2122 NSCLC cells; in the presence of 1 μM abemaciclib, 5% DCC-FBS, read-out: IC50 of SERD for inhibition of NSCLC cell proliferation, H2122) of 740 nM. For the same molecule, the IC50 (H2122 NSCLC cells; in the presence of 1 μM palbociclib, 5% DCC-FBS, read-out: IC50 of SERD for inhibition of NSCLC cell proliferation, H2122) was 2400 nM, the IC50 (A549 NSCLC cells; [7]) was 1990 nM and the IC50 (A549 NSCLC cells; in the presence of 1 μM abemaciclib, 5% DCC-FBS, read-out: IC50 of SERD for inhibition of NSCLC cell proliferation, A549) was 560 nM. For the same molecule, the IC50 (A549 NSCLC cells; in the presence of 1 μM palbociclib, 5% DCC-FBS, read-out: IC50 of SERD for inhibition of NSCLC cell proliferation, A549) was 1220 nM.

Molecule `C[C@]12C[C@H](Oc3ccc(NCCN4CCOCC4)cc3)[C@@H]3c4ccc(O)cc4CC[C@H]3[C@@H]1CC[C@@H]2O` [JD121] has an IC50 [1] of 360 nM, an IC50 (H1975 NSCLC cells; [5]) of 2620 nM and an IC50 (H2122 NSCLC cells; [6]) of 14500 nM. It also gave an IC50 (A549 NSCLC cells; [7]) of 1260 nM.

For `C[C@]12CCC(=O)C=C1CC[C@@H]1[C@@H]2CC[C@]2(C)C(=O)CC[C@@H]12` [androstenedione], the “phosphorylation of Rb serine-780” value (Rb serine-780) was “stimulate Rb phosphorylation”.

For `CN(C)CCCC(=O)Nc1ccc(O[C@H]2C[C@]3(C)[C@@H](O)CC[C@H]3[C@@H]3CCc4cc(O)ccc4[C@H]32)cc1C(F)(F)F` [JD155, N-(4-(((8S,9S,11S,13S,14S,17S)-3,17-Dihydroxy-13-methyl-7,8,9,11,12,13,14,15,16,17-deca-hydro-6H-cyclopenta[a]phenanthren-11-yl)oxy)-2-(trifluoromethyl)phenyl)-4-(dimethylamino)butanamide], the IC50 (H1975 NSCLC cells; [5]) was 4410 nM, the IC50 (H2122 NSCLC cells; [6]) was 1220 nM and the IC50 (A549 NSCLC cells; [7]) was 2050 nM.

In the case of `CC/C(=C(\c1ccccc1)c1ccc(OCCN(C)C)cc1)c1ccccc1` [tamoxifen], the “growth of parent tumors (xenografts)” value (MCF-7 parental cells) is listed as “suppressed”, the “reduction in disease recurrence” value (ER+ early breast cancer) is listed as 39% and the reduction in mortality (ER+ early breast cancer) is listed as 31%. The “sensitivity of MCF-7/HER-2 xenografts” value (MCF-7/HER-2 cells) was “insensitive”.

In the case of `C[C@]12C[C@H](Oc3ccc(NC(=O)CCCCN4CCCCC4)c(C(F)(F)F)c3)[C@@H]3c4ccc(O)cc4CC[C@H]3[C@@H]1CC[C@@H]2O` [JD156, N-(4-(((8S,9S,11S,13S,14S,17S)-3,17-Dihydroxy-13-methyl-7,8,9,11,12,13,14,15,16,17-deca-hydro-6H-cyclopenta[a]phenanthren-11-yl)oxy)-2-(trifluoromethyl)phenyl)-5-(piperidin-1-yl)pentanamide], the IC50 (H1975 NSCLC cells; [5]) is reported as 3200 nM, the IC50 (H2122 NSCLC cells; [6]) is reported as 1690 nM and the IC50 (A549 NSCLC cells; [7]) is reported as 1600 nM.

Molecule `C[C@]12C[C@H](Oc3ccc(NC(=O)CCCCN4CCOCC4)c(C(F)(F)F)c3)[C@@H]3c4ccc(O)cc4CC[C@H]3[C@@H]1CC[C@@H]2O` [JD157, N-(4-(((8S,9S,11S,13S,14S,17S)-3,17-Dihydroxy-13-methyl-7,8,9,11,12,13,14,15,16,17-deca-hydro-6H-cyclopenta[a]phenanthren-11-yl)oxy)-2-(trifluoromethyl)phenyl)-5-morpholino-pentanamide] has an IC50 (H1975 NSCLC cells; [5]) of 1800 nM, an IC50 (H2122 NSCLC cells; [6]) of 1280 nM and an IC50 (A549 NSCLC cells; [7]) of 3950 nM.
